Assay results from patent US12485147B2, “Method for producing cell mass including pituitary tissue, and cell mass thereof” (SUMITOMO CHEMICAL COMPANY, LIMITED, priority 2017, dated 2025).

Test system: Human ES cells (KhES-1 strain)
Assay: Addition conditions of Wnt signal transduction pathway inhibiting substance in production of cell mass containing pituitary tissue; bright field observation
Type: cell-based
Details: day 28; for nonneural epithelial structure on surface of cell mass: IWP-2 2 μM, KY02111 5 μM, C-59 500 nM, LGK974 5 μM, XAV939 1 μM, IWR1-endo 1 μM added at start, with SB-431542, BMP4, SAG; for size and condition of cell mass: 2 μM IWP-2, 5 μM KY02111, 1 μM XAV939, 1 μM IWR1e
Protocol: Human ES cells (KhES-1 strain) were cultured under feeder-free conditions according to the method described in Scientific Reports, 4, 3594 (2014). As the feeder-free medium, StemFit medium was used and, as the feeder-free scaffold, Laminin 511-E8 was used.
Specific maintenance culturing operation was performed in the same manner as in Example 1.
Thereafter, suspension culturing in a 96 well plate was performed under conditions similar to those in Example 1 except that the kind or the presence or absence of the Wnt signal transduction pathway inhibiting substance to be added at the start of suspension culturing was changed. As the Wnt signal transduction pathway inhibiting substances, IWP-2, C-59 (manufactured by Cayman Chemicals, 500 nM), LGK974 (manufactured by Cayman Chemicals, 5 μM) which are PORCN inhibitors; XAV939 (manufactured by Cayman Chemicals, 1 μM), IWR1-endo (manufactured by Merck Millipore, 1 μM) which are TANK inhibitors, and KY02111 (manufactured by Cayman Chemicals, 5 μM) whose action mechanism has not been reported were added at the start of the suspension culturing, and the condition with the addition of DMSO alone as a control of no addition of a Wnt signal transduction pathway inhibiting substance was performed.
A serum-free medium not containing Y27632 and containing each Wnt signal transduction pathway inhibiting substance, SB-431542, BMP4, and SAG was added at 100 μl per well on day 2 from the start of suspension culturing. BMP4 was added at 3 nM to the medium so that the final concentration in the well would be 1.5 nM, and SAG was added at 4 μM to the medium so that the final concentration in the well would be 2 μM.
A half amount of the medium was changed with a serum-free medium not containing Y27632 or BMP4 and containing each Wnt signal transduction pathway inhibiting substance, SB-431542 and SAG on days 6, 10, 13, 17, 21, 24 from the start of suspension culturing. In addition to the above-mentioned conditions, the condition in which neither SB431542 nor a Wnt signal transduction pathway inhibiting substance is added during suspension culturing was also performed.
Bright field observation was performed using an inverted microscope (manufactured by KEYENCE CORPORATION, BIOREVO) on day 28 from the start of suspension culturing (FIGS. 7A-H).

Compound | nonneural epithelial structure on surface of cell mass | size and condition of cell mass
Cc1cc(-c2ncc(CC(=O)Nc3ccc(-c4cnccn4)cn3)cc2C)ccn1 [LGK974] | cell masses having a nonneural epithelial structure on the surface were formed | 
O=C(Nc1cccc2cccnc12)c1ccc(N2C(=O)[C@@H]3[C@H](C2=O)[C@@H]2C=C[C@H]3C2)cc1 [IWR1-endo] | cell masses having a nonneural epithelial structure on the surface were formed | large cell masses in good condition were formed
COc1ccc(CCC(=O)Nc2nc3ccc(Cl)cc3s2)cc1OC [KY02111] | cell masses having a nonneural epithelial structure on the surface were formed | large cell masses in good condition were formed
Cc1cc(-c2ccc(CC(=O)Nc3ccc(-c4cccnc4)cc3)cc2)ccn1 [C59] | cell masses having a nonneural epithelial structure on the surface were formed | 
Oc1nc(-c2ccc(C(F)(F)F)cc2)nc2c1CSCC2 [XAV939] | cell masses having a nonneural epithelial structure on the surface were formed | large cell masses in good condition were formed
